Data taken from the NIST ThermoML archive (doi:10.1021/je030167i).

Assay: xn = mol fraction of the nth substance listed
Details: 101.3 kPa, Liquid

CC1CCCO1 (centres undefined) [2-methyltetrahydrofuran] + CC(C)(C)O
Details | kinematic viscosity, 298.15 K [m2/s] | kinematic viscosity, 313.15 K [m2/s] | mass density, 298.15 K [kg/m3] | mass density, 313.15 K [kg/m3]
x2 = 0 | 5.59e-07 | 4.92e-07 | 849.28 | 834.01
x2 = 0.038 | 5.81e-07 | 5.04e-07 | 846.42 | 831.02
x2 = 0.0906 | 6.07e-07 | 5.27e-07 | 842.39 | 826.98
x2 = 0.191 | 6.72e-07 | 5.73e-07 | 835.27 | 819.77
x2 = 0.3192 | 7.79e-07 | 6.49e-07 | 826.46 | 811.22
x2 = 0.3935 | 8.66e-07 | 7.06e-07 | 821.4 | 806.46
x2 = 0.4981 | 1.03e-06 | 8.15e-07 | 814.49 | 799.58
x2 = 0.5918 | 1.25e-06 | 9.49e-07 | 808.4 | 793.51
x2 = 0.6972 | 1.67e-06 | 1.17e-06 | 801.38 | 786.72
x2 = 0.7952 | 2.2e-06 | 1.47e-06 | 795.17 | 780.27
x2 = 0.8989 | 3.34e-06 | 1.97e-06 | 788.08 | 773.14
x2 = 0.9532 | 4.37e-06 | 2.35e-06 | 784.19 | 769.08

CC1CCCO1 (centres undefined) [2-methyltetrahydrofuran] + CC(C)CCl
x2 = 0
Details | kinematic viscosity [m2/s] | mass density [kg/m3]
298.15 K | 5.59e-07 | 849.28
313.15 K | 4.92e-07 | 834.01

CC1CCCO1 (centres undefined) [2-methyltetrahydrofuran] + CC(C)CO
Details | kinematic viscosity, 298.15 K [m2/s] | kinematic viscosity, 313.15 K [m2/s] | mass density, 298.15 K [kg/m3] | mass density, 313.15 K [kg/m3]
x2 = 0 | 5.59e-07 | 4.92e-07 | 849.28 | 834.01
x2 = 0.0397 | 5.85e-07 | 5.06e-07 | 847.52 | 832.15
x2 = 0.0951 | 6.17e-07 | 5.31e-07 | 844.97 | 829.82
x2 = 0.1999 | 6.87e-07 | 5.88e-07 | 840.08 | 825.25
x2 = 0.3008 | 7.77e-07 | 6.54e-07 | 835.46 | 820.88
x2 = 0.3982 | 8.96e-07 | 7.47e-07 | 830.71 | 816.54
x2 = 0.4988 | 1.04e-06 | 8.47e-07 | 825.72 | 811.84
x2 = 0.5992 | 1.26e-06 | 9.96e-07 | 820.51 | 807.01
x2 = 0.7013 | 1.58e-06 | 1.22e-06 | 815.04 | 801.97
x2 = 0.7995 | 2.06e-06 | 1.51e-06 | 809.54 | 796.99
x2 = 0.9048 | 2.93e-06 | 2.02e-06 | 803.45 | 791.39
x2 = 0.9557 | 3.55e-06 | 2.36e-06 | 800.39 | 788.49

CC1CCCO1 (centres undefined) [2-methyltetrahydrofuran] + CCC(C)Cl
x2 = 0
Details | kinematic viscosity [m2/s] | mass density [kg/m3]
298.15 K | 5.59e-07 | 849.28
313.15 K | 4.92e-07 | 834.01
